The source of these data is patent US20160106110A1, “COMPOSITIONS AND METHODS FOR ENHANCING GERMINATION” (CORNELL UNIVERSITY, priority 2013, published 2016).

Experiment [1] relates to TrigoCor spores. The experiment can be described thus: Terbium chloride (DPA release) spore germination assay at 37° C., 10 mM germinant (Example 1). Conditions: for Percent germination of TrigoCor spores: 10 mM germinant, mean ± standard deviation; for percent germination of spores as compared to control (in words): summary of Table 1, 10 mM. Type of experiment: cell-based, Bacillus subtilis var. amyloliquefaciens. The procedure:
Bacillus starter cultures were grown in nutrient broth plus yeast extract (Crane et al. 2013), then were transferred 1:1000 to a modified Schaeffer's sporulation medium (Nicholson and Setlow 1990) containing per liter 2.012 g KCl, 0.492 g MgSO4. 7 H20, no NaOH, and 0.0197 g MnCl2.4H20, and grown for 72 h. All cultures were grown in 50 mL aliquots in beveled flasks at 37° C. with 225 RPM shaking. Liquid cultures were spun down at 4° C. for 10 min at 10,000 RCF, washed 10 times in cold deionized water, and resuspended in 5 mL cold deionized water. To remove vegetative cells, cultures were treated with lysozyme (final concentration 50 μg/mL) for 10 min on ice, followed by six rounds of 15 sec sonication on ice, then were washed twice with cold deionized water. Spore preparations were stored in deionized water at 4° C., and prior to use were washed once with cold deionzied water. Unless otherwise noted, spores were resuspended in 25 mM HEPES (Sigma-Aldrich, St. Louis, Mo.) pH 7.41 to produce a final concentration of 10^8 CFUs/mL. Purified spore cultures contained over 98% phase-bright spores and minimal cell debris, as verified through phase contrast microscopy.
Terbium chloride (1 mM) (Sigma-Aldrich, St. Louis, Mo.) and all germinant solutions were prepared in 25 mM HEPES pH 7.41 and added as noted in individual experiments. 90 μL TrigoCor spores were mixed with 10 μL of each germinant (100 mM, final concentration 10 mM) and incubated in a 96-well plate (Thermo Scientific, Waltham, Mass.) at 37° C. for 1, 10, 30, 60, or 120 min. Samples were prepared so that all incubations finished simultaneously and were analyzed together. For each germinant tested, two spore-germinant mixtures were loaded per incubation time. Germinants tested were D-glucose, D-fructose, KBr, KCl, L-alanine, L-asparagine, L-proline, L-valine, and the germinant combination AGFK (equimolar concentrations of L-asparagine, D-glucose, D-fructose, and KCl), or HEPES as a control. Following addition of 100 μL terbium chloride to all samples, fluorescence was measured as explained below.
At each plate reader measurement time, two 90 μL samples of spores autoclaved for 60 min mixed with 10 μL HEPES, as well as a sample containing a mixture of all germinants and HEPES, were added as additional samples in the plate and mixed with 100 μL terbium chloride. A final sample of pure deionized water was included in the plate as well, and these samples were measured alongside all other samples in the plate. Fluorescence was measured at 545 nm emission and 273 nm excitation according to Yi and Setlow (2010) using a Synergy 4 plate reader (Biotek Instruments Inc., Winooski, Vt.). […] Percent spore germination for each sample at each time point was calculated by dividing its relative fluorescence units (RFUs) by the corresponding average RFUs of the autoclaved cells, which have released all their dipicolinic acid (DPA) due to lysis (Yang and Ponce 2009) and provided in Table 1. Spore germination results were confirmed using phase contrast microscopy (data not shown).

Experiment [2] deals with TrigoCor spores. The experiment can be described thus: Terbium chloride spore germination assay at 37° C., 10 or 100 mM germinant (Example 2). Type of experiment: cell-based, Bacillus subtilis var. amyloliquefaciens. Conditions: for Percent germination of TrigoCor spores: mean ± standard deviation; for percent germination of spores as compared to control (in words): summary of Table 2, 10 or 100 mM. Here is the method: The following protocol was performed as per Example 1, with the following modification:
Terbium chloride (1 mM) (Sigma-Aldrich, St. Louis, Mo.) and all germinant solutions were prepared in 25 mM HEPES pH 7.41 and added as noted in individual experiments. 450 μL TrigoCor spores were mixed with 50 μL of each germinant (100 mM and 1 M, final concentrations 10 mM and 100 mM) and incubated at 37° C. Two samples were prepared for each germinant and germinants tested were D-glucose, L-alanine, AGFK, and an equimolar solution of glucose and alanine, or HEPES as a control. After 10, 30, 60, and 120 minutes of incubation, 100 μL was transferred from each tube to a 96-well plate. For an initial measurement of spore germination, two 100 μL samples of spores not mixed with germinants and kept at 4° C. were analyzed alongside the samples which had incubated for 10 minutes. Immediately following each sample time, 100 μL terbium chloride was added to all samples and fluorescence was measured as explained previously.
Percent spore germination for each sample at each time point was calculated by dividing its relative fluorescence units (RFUs) by the corresponding average RFUs of the autoclaved cells, which have released all their dipicolinic acid (DPA) due to lysis (Yang and Ponce 2009) and provided in Table 2. Spore germination results were confirmed using phase contrast microscopy (data not shown).

[3] abbreviates: 10 mM germinant, incubation time 10 min.
Setting [4] is: 10 mM germinant, incubation time 30 min.
The mark [5] stands for this setting: 10 mM germinant, incubation time 60 min.
Setting [6] is: 10 mM germinant, incubation time 120 min.
Setting [7] is: 100 mM germinant, incubation time 10 min.
[8] abbreviates: 100 mM germinant, incubation time 30 min.
[9] abbreviates: 100 mM germinant, incubation time 60 min.
Setting [10] is: 100 mM germinant, incubation time 120 min.

Take `O=C(CO)[C@@H](O)[C@H](O)[C@H](O)CO` [D-fructose]: the “Percent germination of TrigoCor spores” value in the experiment on TrigoCor spores [1] (incubation time 1 min) amounted to 1 ± 0%; in the experiment on TrigoCor spores [1] (incubation time 10 min) it was 1 ± 0%; in the experiment with TrigoCor spores [1] (incubation time 30 min), 1 ± 0%; in the experiment with TrigoCor spores [1] (incubation time 60 min) it was 1 ± 1%; with TrigoCor spores [1] (incubation time 120 min), 1 ± 1%.

For `O=C[C@H](O)[C@@H](O)[C@H](O)[C@H](O)CO` [D-glucose], the “Percent germination of TrigoCor spores” value in the experiment on TrigoCor spores [1] (incubation time 1 min) is given as 1 ± 0%; in the experiment on TrigoCor spores [1] (incubation time 10 min), 1 ± 0%; in the experiment on TrigoCor spores [1] (incubation time 30 min) it was 5 ± 0%; in the experiment with TrigoCor spores [1] (incubation time 60 min), 10 ± 1%; in the experiment on TrigoCor spores [1] (incubation time 120 min), 25 ± 1%; in the experiment on TrigoCor spores [2] (setting [3]) it was 1 ± 0%. Also, the “Percent germination of TrigoCor spores” value in the experiment with TrigoCor spores [2] (setting [4]) was 5 ± 0%; with TrigoCor spores [2] (setting [5]) it was 13 ± 1%; with TrigoCor spores [2] (setting [6]), 28 ± 2%; in the experiment on TrigoCor spores [2] (setting [7]), 1 ± 0%; in the experiment with TrigoCor spores [2] (setting [8]) it was 7 ± 1%; in the experiment with TrigoCor spores [2] (setting [9]), 18 ± 2%. Besides, in the experiment with TrigoCor spores [2] (setting [10]), the “Percent germination of TrigoCor spores” value worked out at 34 ± 1%. For the same compound, the “percent germination of spores as compared to control (in words)” value in the experiment on TrigoCor spores [1] and in the experiment with TrigoCor spores [2] was “increases” each time.

For `C[C@H](N)C(=O)O` [L-alanine], the “Percent germination of TrigoCor spores” value in the experiment on TrigoCor spores [1] (incubation time 1 min) was found to be 1 ± 0%; in the experiment with TrigoCor spores [1] (incubation time 10 min), 4 ± 0%; with TrigoCor spores [1] (incubation time 30 min), 20 ± 1%; in the experiment on TrigoCor spores [1] (incubation time 60 min) it was 23 ± 1%; with TrigoCor spores [1] (incubation time 120 min), 21 ± 0%; in the experiment with TrigoCor spores [2] (setting [3]), 1 ± 0%. In addition, the “Percent germination of TrigoCor spores” value is 13 ± 1% in the experiment on TrigoCor spores [2] (setting [4]); 41 ± 1% with TrigoCor spores [2] (setting [5]); 43 ± 1% in the experiment on TrigoCor spores [2] (setting [6]); 1 ± 0% in the experiment with TrigoCor spores [2] (setting [7]); 47 ± 1% in the experiment on TrigoCor spores [2] (setting [8]); 86 ± 3% in the experiment with TrigoCor spores [2] (setting [9]). Also, the “Percent germination of TrigoCor spores” value with TrigoCor spores [2] (setting [10]) is 90 ± 3%. The “percent germination of spores as compared to control (in words)” value in the experiment on TrigoCor spores [1] and with TrigoCor spores [2] was “increases” throughout.

On to `NC(=O)C[C@H](N)C(=O)O` [L-asparagine], for which the “Percent germination of TrigoCor spores” value with TrigoCor spores [1] (incubation time 1 min), in the experiment with TrigoCor spores [1] (incubation time 10 min), in the experiment with TrigoCor spores [1] (incubation time 30 min), in the experiment on TrigoCor spores [1] (incubation time 60 min) and in the experiment with TrigoCor spores [1] (incubation time 120 min) was 1 ± 0% in each case.

Turning to `O=C(O)[C@@H]1CCCN1` [L-proline], the “Percent germination of TrigoCor spores” value with TrigoCor spores [1] (incubation time 1 min), with TrigoCor spores [1] (incubation time 10 min), in the experiment with TrigoCor spores [1] (incubation time 30 min), with TrigoCor spores [1] (incubation time 60 min) and with TrigoCor spores [1] (incubation time 120 min) was 1 ± 0% each time.

Consider `CC(C)[C@H](N)C(=O)O` [L-valine], for which the “Percent germination of TrigoCor spores” value in the experiment with TrigoCor spores [1] (incubation time 1 min), in the experiment on TrigoCor spores [1] (incubation time 10 min), in the experiment on TrigoCor spores [1] (incubation time 30 min), with TrigoCor spores [1] (incubation time 60 min) and with TrigoCor spores [1] (incubation time 120 min) was 1 ± 0% each time.

As to `[Br-].[K+]` [Potassium bromide], the “Percent germination of TrigoCor spores” value with TrigoCor spores [1] (incubation time 1 min), in the experiment with TrigoCor spores [1] (incubation time 10 min), in the experiment with TrigoCor spores [1] (incubation time 30 min), in the experiment on TrigoCor spores [1] (incubation time 60 min) and in the experiment with TrigoCor spores [1] (incubation time 120 min) was 1 ± 0% in each case.

Regarding `[Cl-].[K+]` [Potassium chloride], the “Percent germination of TrigoCor spores” value in the experiment with TrigoCor spores [1] (incubation time 1 min), in the experiment with TrigoCor spores [1] (incubation time 10 min), in the experiment on TrigoCor spores [1] (incubation time 30 min), in the experiment on TrigoCor spores [1] (incubation time 60 min) and in the experiment on TrigoCor spores [1] (incubation time 120 min) was 1 ± 0% throughout.
